Assay: xn = mol fraction of the nth substance listed, in the solute-free solvent

CN1CCN(C2=Nc3cc(Cl)ccc3Nc3ccccc32)CC1 + CS(C)=O + O
solubility (g/100 g solution)
Conditions | 293.15 K | 298.15 K | 303.15 K | 308.15 K | 313.15 K | 318.15 K | 323.15 K | 328.15 K | 333.15 K
x2 = 0.02501 | 0.0367 | 0.0478 | 0.0615 | 0.0795 | 0.0996 | 0.126 | 0.159 | 0.2 | 0.249
x2 = 0.05457 | 0.375 | 0.473 | 0.591 | 0.724 | 0.873 | 1.06 | 1.28 | 1.54 | 1.84
x2 = 0.09003 | 1.33 | 1.64 | 1.96 | 2.36 | 2.78 | 3.26 | 3.88 | 4.56 | 5.3
x2 = 0.1334 | 3.26 | 3.82 | 4.52 | 5.18 | 6.01 | 6.93 | 8.01 | 9.03 | 10.2
x2 = 0.1876 | 5.71 | 6.6 | 7.64 | 8.74 | 9.88 | 11.3 | 12.7 | 14.2 | 15.7
x2 = 0.2572 | 9.16 | 10.5 | 12.1 | 13.6 | 15.4 | 17.2 | 19.1 | 21.3 | 23.4
x2 = 0.3501 | 12.9 | 14.6 | 16.6 | 18.6 | 20.7 | 23.1 | 25.5 | 27.9 | 30.5
x2 = 0.4801 | 16.2 | 18.2 | 20.4 | 22.7 | 25.2 | 27.9 | 30.6 | 33.4 | 36.3
x2 = 0.6751 | 18.4 | 20.7 | 23.2 | 25.8 | 28.6 | 31.3 | 34.3 | 37.4 | 40.4

O=c1ccc(-c2ccccc2)n[nH]1 + CS(C)=O + O
solubility (g/100 g solution)
Conditions | x2 = 0.02501 | x2 = 0.05457 | x2 = 0.09003 | x2 = 0.1334 | x2 = 0.1876 | x2 = 0.2572 | x2 = 0.3501 | x2 = 0.4801 | x2 = 0.6751
298.15 K | 0.016 | 0.0442 | 0.124 | 0.333 | 0.899 | 2.36 | 6.21 | 14.3 | 30.9
303.15 K | 0.0188 | 0.051 | 0.14 | 0.376 | 1.01 | 2.59 | 6.53 | 15.1 | 32.4
308.15 K | 0.0223 | 0.0609 | 0.166 | 0.428 | 1.12 | 2.85 | 7.05 | 16.1 | 33.6
313.15 K | 0.0267 | 0.0709 | 0.188 | 0.487 | 1.26 | 3.14 | 7.63 | 17.1 | 35.2
318.15 K | 0.0334 | 0.0872 | 0.224 | 0.571 | 1.45 | 3.54 | 8.41 | 18.3 | 36.8

CN1CCN(C2=Nc3cc(Cl)ccc3Nc3ccccc32)CC1 + Cc1ccccc1 + CC(C)=O
323.15 K
Conditions | solubility (g/100 g solution)
x2 = 0.06574 | 13.6
x2 = 0.1358 | 15.9
x2 = 0.2124 | 17.4
x2 = 0.2962 | 17
x2 = 0.3864 | 17
x2 = 0.4859 | 16
x2 = 0.5953 | 14.7
x2 = 0.7159 | 12.9
x2 = 0.8497 | 10.3

CCC(C)n1ncn(-c2ccc(N3CCN(c4ccc(OCC5COC(Cn6cncn6)(c6ccc(Cl)cc6Cl)O5)cc4)CC3)cc2)c1=O (stereo not given) + ClC(Cl)Cl + CCCCO
solubility (g/100 g solution)
Conditions | x2 = 0.06524 | x2 = 0.1357 | x2 = 0.2121 | x2 = 0.2952 | x2 = 0.3858 | x2 = 0.4851 | x2 = 0.5945 | x2 = 0.7153 | x2 = 0.8497
288.15 K | 0.0548 | 0.12 | 0.336 | 0.987 | 3.22 | 7.01 | 12 | 17.9 | 23.9
293.15 K | 0.0651 | 0.142 | 0.387 | 1.18 | 3.56 | 7.85 | 13.2 | 18.9 | 24.8
298.15 K | 0.0777 | 0.171 | 0.445 | 1.39 | 3.92 | 8.74 | 14.3 | 20.1 | 25.6
303.15 K | 0.0924 | 0.202 | 0.509 | 1.65 | 4.3 | 9.68 | 15.4 | 21.3 | 26.5
308.15 K | 0.109 | 0.237 | 0.583 | 1.93 | 4.71 | 10.7 | 16.6 | 22.4 | 27.4

CCC(C)n1ncn(-c2ccc(N3CCN(c4ccc(OCC5COC(Cn6cncn6)(c6ccc(Cl)cc6Cl)O5)cc4)CC3)cc2)c1=O (stereo not given) + ClC(Cl)Cl + CCCO
solubility (g/100 g solution)
Conditions | x2 = 0.05356 | x2 = 0.113 | x2 = 0.1792 | x2 = 0.2535 | x2 = 0.3375 | x2 = 0.4331 | x2 = 0.5431 | x2 = 0.6708 | x2 = 0.8209
288.15 K | 0.0558 | 0.128 | 0.28 | 0.831 | 3.16 | 6.95 | 12.2 | 17.6 | 24.2
293.15 K | 0.0691 | 0.153 | 0.347 | 1.04 | 3.51 | 7.71 | 13.2 | 18.8 | 25.1
298.15 K | 0.0837 | 0.183 | 0.426 | 1.28 | 3.9 | 8.57 | 14.2 | 19.9 | 26.1
303.15 K | 0.102 | 0.216 | 0.523 | 1.57 | 4.29 | 9.48 | 15.3 | 21.1 | 26.9
308.15 K | 0.122 | 0.255 | 0.63 | 1.89 | 4.73 | 10.4 | 16.3 | 22.3 | 27.8

CCC(C)n1ncn(-c2ccc(N3CCN(c4ccc(OCC5COC(Cn6cncn6)(c6ccc(Cl)cc6Cl)O5)cc4)CC3)cc2)c1=O (stereo not given) + ClC(Cl)Cl + CCO
solubility (g/100 g solution)
Conditions | x2 = 0.04158 | x2 = 0.08894 | x2 = 0.1434 | x2 = 0.2065 | x2 = 0.2808 | x2 = 0.3694 | x2 = 0.4767 | x2 = 0.6097 | x2 = 0.7785
288.15 K | 0.0692 | 0.133 | 0.268 | 0.494 | 1.05 | 3.89 | 10.7 | 19.4 | 26.1
293.15 K | 0.0835 | 0.16 | 0.32 | 0.565 | 1.38 | 4.82 | 12 | 20.6 | 26.9
298.15 K | 0.0993 | 0.189 | 0.375 | 0.644 | 1.77 | 6 | 13.4 | 21.8 | 27.8
303.15 K | 0.117 | 0.225 | 0.442 | 0.733 | 2.24 | 7.3 | 14.8 | 23 | 28.7
308.15 K | 0.138 | 0.267 | 0.516 | 0.832 | 2.82 | 8.83 | 16.4 | 24.2 | 29.5

CCC(C)n1ncn(-c2ccc(N3CCN(c4ccc(OCC5COC(Cn6cncn6)(c6ccc(Cl)cc6Cl)O5)cc4)CC3)cc2)c1=O (stereo not given) + ClC(Cl)Cl + CO
solubility (g/100 g solution)
Conditions | x2 = 0.02929 | x2 = 0.06358 | x2 = 0.1043 | x2 = 0.1533 | x2 = 0.2136 | x2 = 0.2895 | x2 = 0.3879 | x2 = 0.5207 | x2 = 0.7097
288.15 K | 0.123 | 0.229 | 0.436 | 0.789 | 1.79 | 5.31 | 16.6 | 24.9 | 29.3
293.15 K | 0.147 | 0.272 | 0.515 | 0.931 | 2.3 | 6.83 | 18.2 | 26.3 | 30.1
298.15 K | 0.174 | 0.318 | 0.607 | 1.09 | 2.88 | 8.58 | 19.9 | 27.7 | 30.9
303.15 K | 0.205 | 0.373 | 0.708 | 1.29 | 3.66 | 10.8 | 21.7 | 29.1 | 31.7
308.15 K | 0.242 | 0.434 | 0.827 | 1.5 | 4.54 | 13.4 | 23.6 | 30.4 | 32.5

Source: the CheMixHub drug solubility set
